Data reported in US20200087326A1, “DEEP RED FLUORESCENT PROBE” (The University of Tokyo, priority 2016, published 2020).

What was measured:
[1] = Absorption and fluorescence spectra (photophysical properties) of compounds A-C in solutions of various Ca^2+ concentrations; type: physicochemical; details: 1 μM compound, pH 7.2 MOPS
Protocol: To investigate whether the synthesized compounds A, B, and C can function as Ca^2+ probes, the absorption and fluorescence spectra were measured in solutions of various Ca^2+ concentrations. FIG. 7 represents the absorption spectra (left), emission spectra (center), and fluorescence spectra (right) of 1 μM of compounds A, B, and C in the presence of various concentrations (0, 0.017, 0.038, 0.065, 0.100, 0.150, 0.225, 0.351, […]) of free Ca^2+ in pH 7.2 30 mM 3-(N-morpholino)propanesulfonic acid (MOPS) containing […] and […] (EGTA). The excitation wavelengths were 646 nm (A), 648 nm (B), and 635 nm (C).

[2] = Evaluation of compounds A-C as Ca^2+ probes (fluorescence intensity vs free Ca^2+); type: binding
Protocol: To investigate whether the synthesized compounds A, B, and C can function as Ca^2+ probes, the absorption and fluorescence spectra were measured in solutions of various Ca^2+ concentrations. FIG. 7 represents the absorption spectra (left), emission spectra (center), and fluorescence spectra (right) of 1 μM of compounds A, B, and C in the presence of various concentrations ([…])propanesulfonic acid (MOPS) containing […] and […] (EGTA). The excitation wavelengths were 646 nm (A), 648 nm (B), and 635 nm (C).

[3] = In 0 μM free [Ca^2+] buffer (absence of Ca^2+)
[4] = 39 μM vs 0 μM free [Ca^2+] buffer

## Cc1ccc(N(CC(=O)O)CC(=O)O)c(OCCOc2cc(NC(=O)c3ccc(C4=C5C=CC(=[N+](C)C)C=C5[Si](C)(C)c5cc(N(C)C)ccc54)c(C(=O)O)c3)ccc2N(CC(=O)O)CC(=O)O)c1 [Compound A]
[1]; [3]
  Φfl: 0.10
[1]; In 0 μM free [Ca^2+] buffer
  λabs: 646 nm
  λfl: 673 nm
[1]; In 39 μM free [Ca^2+] buffer
  Φfl: 0.25
  λabs: 646 nm
  λfl: 674 nm
[2]; [4]
  Activation Ratio: ×2.5
[2]; with vs without Ca^2+
  Activation Ratio: 2.5 fold

## Cc1ccc(N(CC(=O)O)CC(=O)O)c(OCCOc2cc(NC(=O)c3ccc(C(=O)O)c(C4=C5C=CC(=[N+](C)C)C=C5[Si](C)(C)c5cc(N(C)C)ccc54)c3)ccc2N(CC(=O)O)CC(=O)O)c1 [Compound B]
[1]; [3]
  Φfl: 0.04
[1]; In 0 μM free [Ca^2+] buffer
  λabs: 648 nm
  λfl: 671 nm
[1]; In 39 μM free [Ca^2+] buffer
  Φfl: 0.29
  λabs: 647 nm
  λfl: 672 nm
[2]; [4]
  Activation Ratio: ×7.3

## Cc1ccc(N(CC(=O)O)CC(=O)O)c(OCCOc2cc(NC(=O)C/[N+](C)=C3/C=CC4=C(c5ccccc5C(=O)[O-])c5ccc(N(C)C)cc5[Si](C)(C)C4=C3)ccc2N(CC(=O)O)CC(=O)O)c1 [Compound C]
[1]; [3]
  Φfl: 0.01
[1]; In 0 μM free [Ca^2+] buffer
  λabs: 637 nm
  λfl: 664 nm
[1]; In 39 μM free [Ca^2+] buffer
  Φfl: 0.26
  λabs: 636 nm
  λfl: 661 nm
[2]; [4]
  Activation Ratio: ×26
[2]; with vs without Ca^2+
  Activation Ratio: 26 fold
